Results: article PMC6442119, “The antitumor activity of CYB-L10, a human topoisomerase IB catalytic inhibitor” (Journal of Enzyme Inhibition and Medicinal Chemistry, 2019)
“Also recorded” adds a separate entry of the source.

Tests used:
[1] = system: MCF-7/ADR; assay: MTT assay; assay type: cell-based, human
[2] = system: 60 human clinical cancer cell lines (NCI60); assay: NCI60 assay, mean-graph midpoint; assay type: cell-based; settings: NCI60, 48 h
Description: (§1) CYB-L10 was tested using the protocols by the NCI, which has been described previously. […] The overall antiproliferative potential is quantified as a mean-graph midpoint (MGM). […] It was selected and submitted to National Cancer Institute (NCI, USA) for a developmental therapeutics assay against the 60 clinical tumor cell lines representing nine tissue types (NCI60)[23–25]. The tumor cells were incubated with CYB-L10 for 48 h and stained with sulphorhodamine B dye. Cell growth inhibition (GI50) was calculated relative to the control without compound.

[3] = system: TOP2; assay: TOP2-mediated relaxation assay; assay type: biochemical; settings: 25 μM, relaxation of supercoiled pBR322 DNA
Description: Figure S1. TOP2-mediated relaxation assay. Lane 1, supercoiled pBR322 DNA alone; Lane 2, DNA
and enzyme; Lanes 3, DNA, enzyme and the positive control etoposide (VP16) at 25 μM; Lanes 4,
DNA, enzyme and CYB-L10 at 25 μM. R: relaxed DNA. Sc: supercoiled DNA.
(1 picture or pasted object on this page, not shown here)

[4] = system: HepG2; assay: MTT assay; assay type: cell-based; settings: Homo sapiens; Parental cell line HepG2, MTT, 72 h
[5] = system: SK-OV-3; assay: NCI60 assay; assay type: cell-based; settings: Homo sapiens; Ovarian cancer, SK-OV-3, 48 h
Description: as §1

[6] = system: TK-10; assay: NCI60 assay; assay type: cell-based; settings: Homo sapiens; Renal cancer, TK-10, 48 h
Description: as §1

[7] = system: MALME-3M; assay: NCI60 assay; assay type: cell-based; settings: Homo sapiens, Melanoma, 48 h
Description: as §1

[8] = system: NCI-H226; assay: NCI60 assay; assay type: cell-based; settings: Homo sapiens; Non-small cell lung cancer, NCI-H226, 48 h
Description: as §1

[9] = system: SK-MEL-5; assay: NCI60 assay; assay type: cell-based; settings: Homo sapiens; Melanoma, SK-MEL-5, 48 h
Description: as §1

[10] = system: SW-620; assay: NCI60 assay; assay type: cell-based; settings: Homo sapiens; Colon cancer, SW-620, 48 h
Description: as §1

[11] = system: RPMI-8226; assay: NCI60 assay; assay type: cell-based; settings: Homo sapiens; Leukemia, RPMI-8226, 48 h
Description: as §1

[12] = system: OVCAR-5; assay: NCI60 assay; assay type: cell-based; settings: Homo sapiens; Ovarian cancer, OVCAR-5, 48 h
Description: as §1

[13] = system: SF-539; assay: NCI60 assay; assay type: cell-based; settings: Homo sapiens; CNS cancer, SF-539, 48 h
Description: as §1

[14] = system: MDA-MB-468; assay: NCI60 assay; assay type: cell-based; settings: Homo sapiens; Breast cancer, MDA-MB-468, 48 h
Description: as §1

[15] = system: OVCAR-4; assay: NCI60 assay; assay type: cell-based; settings: Homo sapiens; Ovarian cancer, OVCAR-4, 48 h
Description: as §1

[16] = system: MCF7; assay: NCI60 assay; assay type: cell-based; settings: Homo sapiens, Breast cancer, MCF7, 48 h
Description: as §1

[17] = system: M14; assay: NCI60 assay; assay type: cell-based; settings: Homo sapiens; Melanoma, M14, 48 h
Description: as §1

[18] = system: SF-295; assay: NCI60 assay; assay type: cell-based; settings: Homo sapiens; CNS cancer, SF-295, 48 h
Description: as §1

[19] = system: MOLT-4; assay: NCI60 assay; assay type: cell-based; settings: Homo sapiens; Leukemia, MOLT-4, 48 h
Description: as §1

[20] = system: CAKI-1; assay: NCI60 assay; assay type: cell-based; settings: Homo sapiens; Renal cancer, CAKI-1, 48 h
Description: as §1

[21] = system: SK-MEL-2; assay: NCI60 assay; assay type: cell-based; settings: Homo sapiens; Melanoma, SK-MEL-2, 48 h
Description: as §1

[22] = system: SF-268; assay: NCI60 assay; assay type: cell-based; settings: Homo sapiens; CNS cancer, SF-268, 48 h
Description: as §1

[23] = system: OVCAR-3; assay: NCI60 assay; assay type: cell-based; settings: Homo sapiens; Ovarian cancer, OVCAR-3, 48 h
Description: as §1

[24] = system: OVCAR-8; assay: NCI60 assay; assay type: cell-based; settings: Homo sapiens; Ovarian cancer, OVCAR-8, 48 h
Description: as §1

[25] = system: RC0.1; assay: MTT assay
[26] = system: TOP1; design: method as in PMID 26188908; settings: compared with CPT; cited from earlier work
[27] = system: HCT116; assay: MTT assay; assay type: cell-based; settings: Homo sapiens, HCT-116; Parental cell line HCT116, MTT, 72 h
[28] = system: HepG2/ADR; assay: MTT assay; assay type: cell-based, human
[29] = system: HCT116 cells; assay: Apoptosis analysis, flow cytometry annexin V-FITC/PI; assay type: cell-based, human; settings: 9 μM, 24 h
Description: HCT116 cells (3.0 × 10^5 cells/mL) were grown in culture medium on 6-well plates and incubated in the presence or absence of CYB-L10 (1, 3, and 9 µM) for 24 h. And then, the cells were harvested and washed with cold PBS buffer, resuspended in 1 × binding buffer, and then stained with 5 µL Annexin V-FITC and 5 µL propidium iodide (KeyGEN BioTECH, Nanjing, China) for 15 min in dark. The stained cells were analyzed by using flow cytometry (BD, FACSCalibur, Franklin Lakes, NJ, USA) within 1 h. The experiments were repeated independently for three times.
To estimate the effect of CYB-L10 on apoptosis, flow cytometry analysis using double staining with annexin V-FITC/PI was carried out for HCT116 cells. […] CYB-L10 induced the major population of HCT116 cells into the late apoptotic stage 47.39% at 9 μM concentration.

[30] = target: P-glycoprotein (Pgp) (Homo sapiens, UniProt P08183); assay: Pgp substrate assessment in Pgp-overexpressing resistant sublines; settings: from MCF-7/ADR and HepG2/ADR sublines with overexpressed Pgp
Chain of P-glycoprotein (Pgp) (P08183 whole entry): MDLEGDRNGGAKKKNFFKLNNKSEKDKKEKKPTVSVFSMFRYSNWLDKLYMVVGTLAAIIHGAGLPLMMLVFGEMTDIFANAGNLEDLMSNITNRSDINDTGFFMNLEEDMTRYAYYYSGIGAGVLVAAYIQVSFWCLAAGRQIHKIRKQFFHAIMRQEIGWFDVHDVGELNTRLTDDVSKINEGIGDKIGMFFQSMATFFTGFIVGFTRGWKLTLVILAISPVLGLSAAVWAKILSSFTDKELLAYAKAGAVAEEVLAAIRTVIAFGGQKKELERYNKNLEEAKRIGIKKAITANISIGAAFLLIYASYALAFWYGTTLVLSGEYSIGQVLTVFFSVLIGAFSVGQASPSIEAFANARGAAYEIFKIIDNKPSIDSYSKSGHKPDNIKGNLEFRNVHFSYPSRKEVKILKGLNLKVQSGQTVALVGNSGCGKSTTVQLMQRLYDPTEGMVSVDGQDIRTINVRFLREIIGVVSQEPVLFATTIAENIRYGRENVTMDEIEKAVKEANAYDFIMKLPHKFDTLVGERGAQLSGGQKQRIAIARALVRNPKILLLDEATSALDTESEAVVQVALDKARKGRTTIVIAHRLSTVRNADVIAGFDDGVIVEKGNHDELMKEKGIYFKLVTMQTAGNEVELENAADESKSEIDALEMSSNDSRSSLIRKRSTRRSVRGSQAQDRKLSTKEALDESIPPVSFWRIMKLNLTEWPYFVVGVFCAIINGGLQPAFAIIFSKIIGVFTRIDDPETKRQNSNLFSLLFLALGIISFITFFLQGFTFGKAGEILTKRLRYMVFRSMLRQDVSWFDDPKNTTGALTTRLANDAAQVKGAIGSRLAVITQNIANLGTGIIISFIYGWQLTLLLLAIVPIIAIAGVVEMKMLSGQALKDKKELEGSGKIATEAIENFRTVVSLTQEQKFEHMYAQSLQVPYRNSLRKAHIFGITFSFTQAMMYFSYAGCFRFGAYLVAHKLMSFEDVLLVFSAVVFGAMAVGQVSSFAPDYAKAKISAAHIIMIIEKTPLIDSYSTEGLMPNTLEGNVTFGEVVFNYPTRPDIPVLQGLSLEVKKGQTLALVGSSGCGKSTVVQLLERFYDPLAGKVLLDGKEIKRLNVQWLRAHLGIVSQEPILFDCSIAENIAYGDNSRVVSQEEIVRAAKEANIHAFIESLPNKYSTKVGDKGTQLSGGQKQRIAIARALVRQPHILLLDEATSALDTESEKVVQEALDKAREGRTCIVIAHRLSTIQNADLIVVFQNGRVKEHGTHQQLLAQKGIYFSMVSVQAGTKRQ

In the case of `O=C1c2cccnc2C(=O)c2c1c(C(=O)OCCN1CCOCC1)c1ccccn21` [CYB-L10], the Resistance ratio ([1]; GI50 MCF-7/ADR / GI50 MCF-7) is reported as 6.6, the GI50 ([1]; Homo sapiens, NCI/ADR-RES, Resistant subline MCF-7/ADR, MTT, 72 h) is reported as 600 ± 210 nM and the “MGM (mean graph midpoint for growth inhibition of all human cancer cell lines)” value [2] is reported as 0.050 µM. The “inhibition against TOP2” value [3] was “very weak inhibition”, the GI50 [4] was 65 ± 30 nM and the GI50 [5] was less than 10 nM. The GI50 [6] was 361 nM, the GI50 [7] was 45 nM and the GI50 [8] was 28.9 nM. The GI50 [9] was 28.5 nM, the GI50 [10] was less than 10 nM and the GI50 [11] was 166 nM. The GI50 [12] was 648 nM, the GI50 [13] was less than 10 nM and the GI50 [14] was 1820 nM. It also gave a GI50 [15] of 1220 nM, a GI50 [16] of less than 10 nM and a GI50 [17] of less than 10 nM. For the same compound, the GI50 [18] was 25.7 nM, the GI50 [19] was 217 nM and the GI50 [20] was 33.9 nM. For the same compound, the GI50 [21] was 46.2 nM, the GI50 [22] was 18.5 nM and the GI50 [23] was 170 nM. For the same compound, the GI50 [24] was 28.1 nM, the Resistance ratio ([25]; GI50 RC0.1 / GI50 DU-145) was 40.6 and the GI50 ([25]; Homo sapiens, 72 h, read-out: GI50 ± SD) was 650 ± 10 nM. The TOP1 inhibition [26] was “higher TOP1 inhibition than CPT”, the GI50 [27] was 27 ± 24 nM and the Resistance ratio ([28]; GI50 HepG2/ADR / GI50 HepG2) was 11.4. For the same compound, the GI50 ([28]; Homo sapiens, Resistant subline HepG2/ADR, MTT, 72 h) was 740 ± 240 nM, the “A2 quadrant cells (late apoptotic stage)” value [29] was 47.39% and the “substrate of the Pgp” value [30] was “not a substrate of the P-glycoprotein; also recorded: not to be a substrate of the Pgp”.
